Experimental findings from patent publication US10988477B2 (Merck Patent GmbH, priority 2018, dated 2021) are described below.

The target in one assay is GCN2 kinase (Homo sapiens, UniProt Q9P2K8). The assay is described as follows: GCN2 enzyme inhibition assay (Transcreener ADP2 fluorescence polarization). Type of assay: biochemical. To be noted: compounds of Formula II; 280 μM ATP, 4 nM GCN2 kinase. In a few lines:
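Run at 25 °C in 25 mM Tris-HCl pH 7.5, 50 mM NaCl, 10 mM MgCl2, 1 mM DTT with 4 nM GCN2, 280 μM ATP and 200 μM (RS)7 peptide; compound (0–8 μM final) preincubated 10 min, reaction 1 h. ADP read by antibody/tracer FP; IC50 and Ki(app) from tight-binding fit.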

In assay [1] the target is intracellular GCN2 (phosphorylation of the GCN2 substrate eIF2α) (Homo sapiens, UniProt Q9P2K8). The assay is described as follows: GCN2 cellular inhibition assay (AlphaScreen SureFire P-eIF2α Ser51, borrelidin-treated U2OS cells). It counts as cell-based. To be noted: compounds of Formula II; biomarker assay, phosphorylated eIF2α Ser51 in borrelidin-treated U2OS cells. In a few lines:
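Read-out: AlphaScreen SureFire phospho-eIF2α (Ser51) signal in U2OS lysates. Cells get 4-fold compound dilutions (top 40 μM final) plus 10 μM borrelidin, 1 h, 37 °C. Percent inhibition is relative to borrelidin-alone controls.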

A value given as a limit tells only on which side of the number the result lay.

Sequence of intracellular GCN2 (phosphorylation of the GCN2 substrate eIF2α) (Q9P2K8 whole entry): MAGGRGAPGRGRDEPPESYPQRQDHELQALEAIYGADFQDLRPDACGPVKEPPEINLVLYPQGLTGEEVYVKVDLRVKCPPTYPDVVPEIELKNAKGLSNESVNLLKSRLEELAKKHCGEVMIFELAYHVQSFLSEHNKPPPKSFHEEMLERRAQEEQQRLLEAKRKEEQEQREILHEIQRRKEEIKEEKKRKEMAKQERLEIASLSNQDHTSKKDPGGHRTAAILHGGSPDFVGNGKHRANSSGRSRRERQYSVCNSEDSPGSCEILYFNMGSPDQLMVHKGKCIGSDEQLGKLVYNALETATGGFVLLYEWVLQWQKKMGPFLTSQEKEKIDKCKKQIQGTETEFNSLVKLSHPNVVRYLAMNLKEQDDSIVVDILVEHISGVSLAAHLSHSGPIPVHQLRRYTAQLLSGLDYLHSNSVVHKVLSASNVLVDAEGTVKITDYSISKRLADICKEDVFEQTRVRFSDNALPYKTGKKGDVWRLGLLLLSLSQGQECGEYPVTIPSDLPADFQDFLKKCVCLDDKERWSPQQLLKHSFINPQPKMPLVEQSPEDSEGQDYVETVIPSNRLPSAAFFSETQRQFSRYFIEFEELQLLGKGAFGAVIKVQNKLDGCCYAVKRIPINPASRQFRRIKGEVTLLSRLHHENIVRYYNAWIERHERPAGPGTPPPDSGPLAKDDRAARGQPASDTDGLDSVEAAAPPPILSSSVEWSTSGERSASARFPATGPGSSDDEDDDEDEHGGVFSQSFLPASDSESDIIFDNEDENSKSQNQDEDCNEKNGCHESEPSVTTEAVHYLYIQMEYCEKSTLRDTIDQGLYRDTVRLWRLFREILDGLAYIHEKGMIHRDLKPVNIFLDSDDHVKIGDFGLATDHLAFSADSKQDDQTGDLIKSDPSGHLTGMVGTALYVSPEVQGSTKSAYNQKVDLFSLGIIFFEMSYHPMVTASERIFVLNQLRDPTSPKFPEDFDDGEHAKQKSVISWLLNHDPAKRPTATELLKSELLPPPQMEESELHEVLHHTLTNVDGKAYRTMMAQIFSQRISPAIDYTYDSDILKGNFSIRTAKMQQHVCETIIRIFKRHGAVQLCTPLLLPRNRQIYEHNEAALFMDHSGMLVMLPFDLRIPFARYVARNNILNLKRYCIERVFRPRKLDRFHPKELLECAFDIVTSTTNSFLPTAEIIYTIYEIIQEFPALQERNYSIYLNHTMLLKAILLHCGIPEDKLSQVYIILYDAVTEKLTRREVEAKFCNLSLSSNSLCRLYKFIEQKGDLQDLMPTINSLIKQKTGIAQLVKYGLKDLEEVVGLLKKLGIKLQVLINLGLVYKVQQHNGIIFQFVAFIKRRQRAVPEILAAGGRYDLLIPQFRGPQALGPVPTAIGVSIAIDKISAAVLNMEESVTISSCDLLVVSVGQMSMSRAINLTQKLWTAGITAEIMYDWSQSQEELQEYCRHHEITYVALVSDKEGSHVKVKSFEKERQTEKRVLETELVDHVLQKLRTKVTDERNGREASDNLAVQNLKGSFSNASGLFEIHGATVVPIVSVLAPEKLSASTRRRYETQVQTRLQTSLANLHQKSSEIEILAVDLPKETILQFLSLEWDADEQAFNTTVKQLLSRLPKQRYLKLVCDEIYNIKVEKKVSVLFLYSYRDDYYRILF
Sequence of GCN2 kinase (Q9P2K8 whole entry): as above

`CNc1cc(-c2cnc3ccc(C(F)F)nn23)cc(N2CC(C)C(F)(F)C(CNS(C)(=O)=O)C2)n1` (stereo not shown) [II-64, N-((1-(4-(6-(Difluoromethyl)imidazo[1,2-b]pyridazin-3-yl)-6-(methylamino)pyridin-2-yl)-4,4-difluoro-5-methylpiperidin-3-yl)methyl)methanesulfonamide] registered a Ki on GCN2 kinase of less than 10 nM. This molecule displayed an IC50 in assay [1] of less than 500 nM.
As for `CNc1cc(-c2cnc3ccc(C(F)F)nn23)cc(N2CC(C)C(F)(F)C(CNS(C)(=O)=O)C2)n1` (stereo not shown) [II-65, N-((1-(4-(6-(Difluoromethyl)imidazo[1,2-b]pyridazin-3-yl)-6-(methylamino)pyridin-2-yl)-4,4-difluoro-5-methylpiperidin-3-yl)methyl)methanesulfonamide], the Ki at GCN2 kinase is less than 10 nM. For the same molecule, the IC50 in assay [1] lay in the range of 500 to 5000 nM.
On GCN2 kinase, `CS(=O)(=O)NCC1CCCN(c2cc(-c3cnc4ccc(C(F)F)nn34)cc(N3CCOCC3)n2)C1` (stereo not shown) [II-66, N-((1-(4-(6-(Difluoromethyl)imidazo[1,2-b]pyridazin-3-yl)-6-morpholinopyridin-2-yl)piperidin-3-yl)methyl)methanesulfonamide] showed an inhibition constant Ki of less than 10 nM. For the same molecule, in assay [1], the IC50 was in the range of 500 to 5000 nM.
Taken in the same sequence, the figures for `CS(=O)(=O)NCC1CCCN(c2cc(-c3cnc4ccc(C(F)F)nn34)cc(N3CC4(CCN4)C3)n2)C1` (stereo not shown) [II-67, N-((1-(4-(6-(Difluoromethyl)imidazo[1,2-b]pyridazin-3-yl)-6-(1,6-diazaspiro[3.3]heptan-6-yl)pyridin-2-yl)piperidin-3-yl)methyl)methanesulfonamide] were less than 10 nM and less than 500 nM.
On the same counts, the results for `CNc1cc(-c2cnc3ccc(C(F)F)nn23)cc(N2CCC[C@H](CNS(C)(=O)=O)C2)n1` [II-68, (S)—N-((1-(4-(6-(Difluoromethyl)imidazo[1,2-b]pyridazin-3-yl)-6-(methylamino)pyridin-2-yl)piperidin-3-yl)methyl)methanesulfonamide] are less than 10 nM and 500 to 5000 nM.
Regarding `CNc1cc(-c2cnc3ccc(C(F)F)nn23)cc(N2CCO[C@H](CNS(C)(=O)=O)C2)n1` [II-69, (S)—N-((4-(4-(6-(Difluoromethyl)imidazo[1,2-b]pyridazin-3-yl)-6-(methylamino)pyridin-2-yl)morpholin-2-yl)methyl)methanesulfonamide], the inhibition constant (Ki) on GCN2 kinase is less than 10 nM. In assay [1], this molecule yielded an IC50 of less than 500 nM.
Take `CS(=O)(=O)N1CCC12CCCN(c1cc(-c3cnc4ccc(C(F)F)nn34)ncn1)C2` (stereo not shown) [II-70, 6-(Difluoromethyl)-3-(6-(1-(methylsulfonyl)-1,6-diazaspiro[3.5]nonan-6-yl)pyrimidin-4-yl)imidazo[1,2-b]pyridazine]: the inhibition constant Ki on GCN2 kinase lay in the range of 10 to 1000 nM. This molecule also registered an IC50 in assay [1] greater than 5000 nM.
Take `CNc1cc(-c2cnc3ccc(C(F)F)nn23)cc(N2CCC(F)(F)C(CNS(C)(=O)=O)C2)n1` (stereo not shown) [II-71, N-((1-(4-(6-(Difluoromethyl)imidazo[1,2-b]pyridazin-3-yl)-6-(methylamino)pyridin-2-yl)-4,4-difluoropiperidin-3-yl)methyl)methanesulfonamide]: the Ki at GCN2 kinase was less than 10 nM. Moreover, in assay [1], the IC50 is 500 to 5000 nM.
Taken in the same sequence, the figures for `CN1CC2(C1)CN(c1cc(-c3cnc4ccc(C(F)F)nn34)cc(N3CCCC(CNS(C)(=O)=O)C3)n1)C2` (stereo not shown) [II-72, N-((1-(4-(6-(Difluoromethyl)imidazo[1,2-b]pyridazin-3-yl)-6-(6-methyl-2,6-diazaspiro[3.3]heptan-2-yl)pyridin-2-yl)piperidin-3-yl)methyl)methanesulfonamide] were less than 10 nM and less than 500 nM.
On the same counts, the results for `CS(=O)(=O)NCC1CCCN(c2cc(-c3cnc4ccc(C(F)F)nn34)cnc2CN)C1` (stereo not shown) [II-73, N-((1-(2-(Aminomethyl)-5-(6-(difluoromethyl)imidazo[1,2-b]pyridazin-3-yl)pyridin-3-yl)piperidin-3-yl)methyl)methanesulfonamide] are 10 to 1000 nM and greater than 5000 nM.
Taken in the same sequence, the figures for `CNCCOc1cc(-c2cnc3ccc(C(F)F)nn23)cc(N2CCCC(CNS(C)(=O)=O)C2)n1` (stereo not shown) [II-74, N-((1-(4-(6-(Difluoromethyl)imidazo[1,2-b]pyridazin-3-yl)-6-(2-(methylamino)ethoxy)pyridin-2-yl)piperidin-3-yl)methyl)methanesulfonamide] were less than 10 nM and 500 to 5000 nM.
For the molecule `CC1CN(c2ccnc(-c3cnc4ccc(C(F)F)nn34)c2)CC(CNS(C)(=O)=O)C1(F)F` (stereo not shown) [II-75, N-((1-(2-(6-(Difluoromethyl)imidazo[1,2-b]pyridazin-3-yl)pyridin-4-yl)-4,4-difluoro-5-methylpiperidin-3-yl)methyl)methanesulfonamide], on GCN2 kinase, the Ki was less than 10 nM. This molecule came in with an IC50 in assay [1] of less than 500 nM.
In the case of `FC(F)c1ccc2ncc(-c3ccnc(N4CCOCC4)c3)n2n1` [II-76, 4-(4-(6-(Difluoromethyl)imidazo[1,2-b]pyridazin-3-yl)pyridin-2-yl)morpholine], the Ki at GCN2 kinase is 10 to 1000 nM. Besides, the IC50 in assay [1] is greater than 5000 nM.
In turn, `O=S1(=O)CCN(c2cc(-c3cnc4ccc(C(F)F)nn34)ccn2)CC1` [II-77, 4-(4-(6-(Difluoromethyl)imidazo[1,2-b]pyridazin-3-yl)pyridin-2-yl)thiomorpholine 1,1-dioxide] came in with an inhibition constant Ki at GCN2 kinase of 10 to 1000 nM. Moreover, the 50% inhibitory concentration (IC50) in assay [1] is greater than 5000 nM.
On GCN2 kinase, `CC1CN(c2cc(-c3cnc4ccc(C(F)F)nn34)ccn2)CC(CNS(C)(=O)=O)C1(F)F` (stereo not shown) [II-78, N-((1-(4-(6-(Difluoromethyl)imidazo[1,2-b]pyridazin-3-yl)pyridin-2-yl)-4,4-difluoro-5-methylpiperidin-3-yl)methyl)methanesulfonamide] gave a Ki of less than 10 nM. This molecule also returned an IC50 in assay [1] of less than 500 nM.
As to `FC(F)c1ccc2ncc(-c3ccnc(N4CC5(CNC5)C4)c3)n2n1` [II-79, 3-(2-(2,6-Diazaspiro[3.3]heptan-2-yl)pyridin-4-yl)-6-(difluoromethyl)imidazo[1,2-b]pyridazine], at GCN2 kinase, the inhibitory constant (Ki) was in the range of 10 to 1000 nM. In assay [1], this molecule gave an IC50 greater than 5000 nM.
Taken in the same sequence, the figures for `CS(=O)(=O)NCC1CCCN(c2cc(-c3cnc4ccc(C(F)F)nn34)cc(CN)n2)C1` (stereo not shown) [II-80, N-((1-(6-(Aminomethyl)-4-(6-(difluoromethyl)imidazo[1,2-b]pyridazin-3-yl)pyridin-2-yl)piperidin-3-yl)methyl)methanesulfonamide] were less than 10 nM and 500 to 5000 nM.
With `CS(=O)(=O)NCC1CN(c2cc(-c3cnc4ccc(C(F)F)nn34)ccn2)CCN1C1COC1` (stereo not shown) [II-81, N-((4-(4-(6-(Difluoromethyl)imidazo[1,2-b]pyridazin-3-yl)pyridin-2-yl)-1-(oxetan-3-yl)piperazin-2-yl)methyl)methanesulfonamide], on GCN2 kinase, the Ki is 10 to 1000 nM. Moreover, the IC50 in assay [1] was greater than 5000 nM.
In turn, `CS(=O)(=O)NCC1CCCN(c2cc(-c3cnc4ccc(C(F)F)nn34)ccc2C#N)C1` (stereo not shown) [II-82, N-((1-(2-Cyano-5-(6-(difluoromethyl)imidazo[1,2-b]pyridazin-3-yl)phenyl)piperidin-3-yl)methyl)methanesulfonamide] returned a Ki on GCN2 kinase of 10 to 1000 nM. The same molecule gave an IC50 in assay [1] of 500 to 5000 nM.
Molecule `CS(=O)(=O)NCC1CCCN(c2cc(-c3cnc4ccc(C(F)F)nn34)cc(N3CC4(COC4)C3)n2)C1` (stereo not shown) [II-83, N-((1-(4-(6-(Difluoromethyl)imidazo[1,2-b]pyridazin-3-yl)-6-(2-oxa-6-azaspiro[3.3]heptan-6-yl)pyridin-2-yl)piperidin-3-yl)methyl)methanesulfonamide] showed a Ki at GCN2 kinase of less than 10 nM. The molecule also yielded an IC50 in assay [1] of 500 to 5000 nM.
The molecule `CS(=O)(=O)NCC1CCCN(c2cc(-c3cnc4ccc(C(F)F)nn34)cc(OC3CNC3)n2)C1` (stereo not shown) [II-84, N-((1-(6-(Azetidin-3-yloxy)-4-(6-(difluoromethyl)imidazo[1,2-b]pyridazin-3-yl)pyridin-2-yl)piperidin-3-yl)methyl)methanesulfonamide] gave a Ki at GCN2 kinase of less than 10 nM. The molecule further yielded an IC50 in assay [1] of 500 to 5000 nM.
On the same counts, the results for `CS(=O)(=O)NCC1CCCN(c2cc(-c3cnc4ccc(C(F)F)nn34)cc(N3CC(O)C3)n2)C1` (stereo not shown) [II-85, N-((1-(4-(6-(Difluoromethyl)imidazo[1,2-b]pyridazin-3-yl)-6-(3-hydroxyazetidin-1-yl)pyridin-2-yl)piperidin-3-yl)methyl)methanesulfonamide] are less than 10 nM and 500 to 5000 nM.
For `CS(=O)(=O)NCC1CCCN(c2cc(-c3cnc4ccc(C(F)F)nn34)cc(N3CC4(CCO4)C3)n2)C1` (stereo not shown) [II-86, N-((1-(4-(6-(Difluoromethyl)imidazo[1,2-b]pyridazin-3-yl)-6-(1-oxa-6-azaspiro[3.3]heptan-6-yl)pyridin-2-yl)piperidin-3-yl)methyl)methanesulfonamide], the Ki at GCN2 kinase was less than 10 nM. Moreover, the IC50 in assay [1] fell in the range of 500 to 5000 nM.
For `CS(=O)(=O)NCC1CCCN(c2cncc(-c3cnc4ccc(C(F)F)nn34)c2)C1` (stereo not shown) [II-87, N-((1-(5-(6-(Difluoromethyl)imidazo[1,2-b]pyridazin-3-yl)pyridin-3-yl)piperidin-3-yl)methyl)methanesulfonamide], on GCN2 kinase, the Ki is less than 10 nM. This molecule displayed an IC50 in assay [1] of 500 to 5000 nM.
At GCN2 kinase, `O=C1OCC2CN(c3cc(-c4cnc5ccc(C(F)F)nn45)ccn3)CCN12` (stereo not shown) [II-88, 7-(4-(6-(Difluoromethyl)imidazo[1,2-b]pyridazin-3-yl)pyridin-2-yl)tetrahydro-1H-oxazolo[3,4-a]pyrazin-3(5H)-one] returned a Ki of 10 to 1000 nM. The same molecule gave an IC50 in assay [1] of 500 to 5000 nM.
Taken in the same sequence, the figures for `COCCNc1cc(-c2cnc3ccc(C(F)F)nn23)cc(N2CCCC(CNS(C)(=O)=O)C2)n1` (stereo not shown) [II-89, N-((1-(4-(6-(Difluoromethyl)imidazo[1,2-b]pyridazin-3-yl)-6-((2-methoxyethyl)amino)pyridin-2-yl)piperidin-3-yl)methyl)methanesulfonamide] were less than 10 nM and 500 to 5000 nM.

One may read the Ki as the dissociation constant of the complex between target and ligand, obtained from inhibition or displacement. A word on the IC50: it is the midpoint of a concentration-inhibition curve. Higher therefore signals a need for much substance.
